Experimental data published in patent US20260297106A1, “SPIROCYCLIC SUBSTITUTED OXOISOINDOLINYL PIPERIDINE-2,6-DIONE COMPOUND” (Bristol-Myers Squibb Company, priority 2023, published 2026).

Target: IKZF2 Helios (Homo sapiens, UniProt Q96SW2+Q9UKS7)
Experiment: Human Regulatory T Cell Reprogramming Assay (IKZF2 Helios)
Format: cell-based
Design: T cells were isolated from fresh healthy leukopaks; endogenous in cells; host or cells: FACS-sorted primary human CD4+ CD127low CD25+ Treg cells from healthy leukopaks
Details: CD4+ CD127low CD25+ Treg cells, 12-13 days; for DC50: concentration reducing protein level by 50% vs DMSO; for Dmax: Regulatory T cell, human, read-out: Maximum Observed Degradation IKZF2 Helios
Method: Human CD4^+ T cells were isolated from fresh healthy leukopaks (Stemcell Technologies) using the RosetteSep Human CD4^+ T cell enrichment cocktail (Stemcell Technologies) and Ficoll density gradient centrifugation. Leukopaks were diluted with an equal volume of phosphate-buffered saline (PBS [Gibco]) supplemented with 2% fetal bovine serum (FBS, VWR Lifescience) and incubated with RosetteSep Human CD4^+ T cell enrichment cocktail for 20 minutes before layering on Ficoll-Paque Plus solution (GE Health Care). The cell-rich interface layer was harvested and washed twice with PBS supplemented with 2% FBS. Regulatory T cells were then isolated manually using the EasySep Human CD4 CD1271WCD25^+ Regulatory T cell isolation kit (Stemcell Technologies) according to the manufacturer's instructions. Cells were rested overnight in Roswell Park Memorial Institute (RPMI) 1640 media (Gibco) supplemented with 10% FBS, Pen/Strep (Gibco), MEM-NEAA (Gibco), and sodium pyruvate (Gibco) in a humidified incubator (37° C., 5% CO2). Cells were then stained for CD4 (clone: RPA-T4, Biolegend), CD25 (clone: 2A3, BD Biosciences), and CD127 (clone: hIL-7R-M21, BD Biosciences). CD4^+ CD127^lowCD25^+ cells were sorted on a BD FACS Aria Fusion sorter to a purity of 95% or greater. Sorted cells were immediately used or cryopreserved for downstream assays.
Fresh or cryopreserved FACS-sorted CD4^+ CD127^lowCD25^+ Treg cells were cultured at 25,000-50,000 cells/well of 96-well round bottom plates in RPMI 1640 media (Gibco) supplemented with 10% FBS, Pen/Strep (Gibco), MEM-NEAA (Gibco), and sodium pyruvate (Gibco). Cells were stimulated with Treg Xpander beads (Thermo Fisher) at cells-to-beads ratio of 1:4 in the presence of 500 U/mL recombinant human IL-2 (Proleukin). Compounds were added at titrated doses and cells were incubated at 37° C., 5% CO2 for 12-13 days. Recombinant human IL-2 and compound were replenished every 2-3 days during the entire culture duration. On day 12 or 13, cells were restimulated with phorbol 12-myristate 13-acetate (PMA) and ionomycin in the presence of the protein transport inhibitors brefeldin A and monensin (eBioscience Cell Stimulation Cocktail plus protein transport inhibitors, 500×, Catalog number 00-4975-93) before proceeding with flow cytometry staining and analysis.
For flow cytometry staining, cells were washed twice with flow cytometry staining buffer (Thermo Fisher) and incubated in Human Tru-stain Fc block (Biolegend) for 10 minutes before adding eFluor780 viability dye (Thermo Fisher) and surface marker antibody cocktail for 30 minutes at 4° C. Cells were then fixed and permeabilized by incubation with FoxP3 transcription factor staining buffer (Thermo Fisher) for 30 minutes at 4° C. as per the kit manufacturer's instructions. Cells were washed twice with the Perm/Wash buffer supplied in the kit as per the manufacturer's instructions and incubated overnight at 4° C. with an intracellular antibody cocktail comprised of antibodies specific for the transcription factors shown in Table C. Cells were washed twice with Perm/Wash buffer and resuspended in flow cytometry staining buffer (Thermo Fisher) prior to acquisition. Sample acquisition and analysis was performed using a BD LSRFortessa (BD Biosciences) flow cytometer. Single stain controls for each fluorochrome were prepared using UltraComp eBead Compensation Beads (Thermo Fisher). Data were analyzed using FlowJo version 10 and GraphPad Prism Software.
Table C-1 lists the maximum observed degradation of the IKZF2 protein and IKZF4 protein as measured in the Human Regulatory T Cell Reprogramming assay. The results in Table C-1 were rounded to two digits. In the Human Regulatory T Cell Reprogramming assay, a value of 100% indicated no detectable protein remaining or complete degradation of the protein; and a value of 0% indicated no detectable degradation of the protein by the test compound.

Sequence of IKZF2 Helios (Q9UKS7 whole entry): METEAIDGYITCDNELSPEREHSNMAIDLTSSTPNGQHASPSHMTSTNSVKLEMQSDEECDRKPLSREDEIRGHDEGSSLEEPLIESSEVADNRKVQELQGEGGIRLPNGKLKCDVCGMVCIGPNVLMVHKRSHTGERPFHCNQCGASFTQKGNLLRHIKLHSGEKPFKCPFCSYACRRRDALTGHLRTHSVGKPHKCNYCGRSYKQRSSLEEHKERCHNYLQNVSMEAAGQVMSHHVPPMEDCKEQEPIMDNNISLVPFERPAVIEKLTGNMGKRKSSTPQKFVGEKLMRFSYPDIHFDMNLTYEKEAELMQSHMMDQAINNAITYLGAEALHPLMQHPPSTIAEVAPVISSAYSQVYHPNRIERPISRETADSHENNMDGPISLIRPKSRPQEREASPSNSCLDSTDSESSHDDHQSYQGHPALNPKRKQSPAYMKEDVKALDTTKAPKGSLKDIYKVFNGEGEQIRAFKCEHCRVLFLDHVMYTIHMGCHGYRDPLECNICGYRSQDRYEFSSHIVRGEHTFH
Sequence of IKZF2 Helios (Q96SW2 whole entry): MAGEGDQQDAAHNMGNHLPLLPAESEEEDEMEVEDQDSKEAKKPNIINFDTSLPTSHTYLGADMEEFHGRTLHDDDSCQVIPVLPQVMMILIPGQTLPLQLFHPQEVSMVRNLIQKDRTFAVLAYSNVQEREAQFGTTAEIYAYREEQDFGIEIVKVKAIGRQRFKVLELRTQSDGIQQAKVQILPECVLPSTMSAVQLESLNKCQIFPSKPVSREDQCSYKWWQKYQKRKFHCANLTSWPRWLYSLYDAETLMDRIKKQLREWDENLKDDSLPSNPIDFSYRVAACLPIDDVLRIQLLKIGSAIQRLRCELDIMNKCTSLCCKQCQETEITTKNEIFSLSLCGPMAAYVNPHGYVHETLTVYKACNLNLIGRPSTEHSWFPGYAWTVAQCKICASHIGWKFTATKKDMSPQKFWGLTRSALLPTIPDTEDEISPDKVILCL
Sequence of IKZF2 Helios (Q16531 whole entry partner): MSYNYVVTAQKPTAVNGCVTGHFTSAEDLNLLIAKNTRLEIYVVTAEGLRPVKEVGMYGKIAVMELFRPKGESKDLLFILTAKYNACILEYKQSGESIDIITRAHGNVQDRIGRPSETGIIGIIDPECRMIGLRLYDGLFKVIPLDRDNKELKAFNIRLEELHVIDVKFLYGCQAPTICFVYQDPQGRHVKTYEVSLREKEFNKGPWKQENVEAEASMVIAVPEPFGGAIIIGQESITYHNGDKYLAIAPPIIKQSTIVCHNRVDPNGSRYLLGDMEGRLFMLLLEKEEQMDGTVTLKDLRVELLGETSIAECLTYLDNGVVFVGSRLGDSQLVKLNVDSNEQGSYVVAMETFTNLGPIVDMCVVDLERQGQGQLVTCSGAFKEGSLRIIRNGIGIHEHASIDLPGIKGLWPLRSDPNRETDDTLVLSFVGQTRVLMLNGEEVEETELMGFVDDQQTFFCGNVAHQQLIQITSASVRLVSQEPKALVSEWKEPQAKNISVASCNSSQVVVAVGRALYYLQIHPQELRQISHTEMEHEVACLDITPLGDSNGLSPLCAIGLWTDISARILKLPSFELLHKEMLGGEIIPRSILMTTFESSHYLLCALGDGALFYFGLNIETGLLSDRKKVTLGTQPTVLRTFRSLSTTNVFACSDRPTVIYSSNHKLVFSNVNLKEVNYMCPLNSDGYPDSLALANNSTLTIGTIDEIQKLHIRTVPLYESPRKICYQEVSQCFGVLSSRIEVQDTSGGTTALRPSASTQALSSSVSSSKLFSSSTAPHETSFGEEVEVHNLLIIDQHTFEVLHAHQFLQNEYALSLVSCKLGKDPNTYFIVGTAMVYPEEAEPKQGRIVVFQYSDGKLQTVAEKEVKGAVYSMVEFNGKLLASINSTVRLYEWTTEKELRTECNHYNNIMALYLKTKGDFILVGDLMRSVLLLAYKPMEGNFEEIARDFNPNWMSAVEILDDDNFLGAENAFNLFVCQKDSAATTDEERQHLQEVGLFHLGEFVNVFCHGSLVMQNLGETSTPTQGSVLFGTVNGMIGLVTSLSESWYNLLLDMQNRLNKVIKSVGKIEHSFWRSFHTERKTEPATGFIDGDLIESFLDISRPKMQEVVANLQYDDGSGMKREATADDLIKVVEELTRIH

| Compound | DC50 | Dmax |
| --- | --- | --- |
| O=C1CCC(N2Cc3c(ccc(-c4cc(CN5CC(c6ccccc6)C5)ccn4)c3F)C2=O)C(=O)N1 (stereo not drawn) [Comparative Compound A, 3-(4-fluoro-1-oxo-5-(4-((3-phenylazetidin-1-yl)methyl)pyridin-2-yl)isoindolin-2-yl) piperidine-2,6-dione] | 2.2 nM | 92% |
| Nc1nc(-c2ccc3c(c2)CN(C2CCC(=O)NC2=O)C3=O)ccc1CN1CC2(CCC2)C1 (stereo not drawn) [Comparative Compound B, 3-(5-(5-((2-azaspiro[3.3]heptan-2-yl)methyl)-6-aminopyridin-2-yl)-1-oxoisoindolin-2-yl) piperidine-2,6-dione] | 25 nM | 90% |
| Nc1nc(-c2ccc3c(c2F)CN(C2CCC(=O)NC2=O)C3=O)ccc1CN1CC2(CCCOC2)C1 (stereo not drawn) [Example 1, 3-(5-(5-((6-oxa-2-azaspiro[3.5]nonan-2-yl)methyl)-6-aminopyridin-2-yl)-4-fluoro-1-oxoisoindolin-2-yl) piperidine-2,6-dione] | 38 nM | 85% |
